Values joined by “and” are separate entries in the source; they are usually repeats but may differ in a detail not shown here. Equal values may be shown once.
Assays:
Assay in all cases: Postemergence herbicidal activity in the greenhouse, visual weed control
Format in all cases: in vivo
Conditions in all cases: 21 DAA
[1] = test system: barnyardgrass (Echinochloa crus-galli; ECHCG)
Protocol: (§1) Seeds of the desired test plant species were planted in 80% mineral soil/20% grit planting mixture, which typically has a pH of 7.2 and an organic matter content of about 2.9 percent, in plastic pots with a surface area of 128 square centimeters (cm^2). The growing medium was steam sterilized. The plants were grown for 7-19 days in a greenhouse with an approximate 14-hour (h) photoperiod which was maintained at about 29° C. during the day and 26° C. during the night. Nutrients and water were added on a regular basis and supplemental lighting was provided with overhead metal halide 1000-Watt lamps as necessary. The plants were treated with postemergence foliar applications when they reached the third to fourth true leaf stage. All treatments were applied using a randomized complete block trial design, with 4 replications per treatment.
(§2) Treatments consisted of the compounds as listed in Table 1 for each compound applied alone and in combination. Formulated amounts of quinclorac and fluroxypyr-meptyl ester were placed in 60 milliliter (mL) glass vials and dissolved in a volume of 60 mL of a water solution containing Agri-dex crop oil concentrate in a 1% volume per volume (v/v) ratio. Compound requirements are based upon a 12 mL application volume at a rate of 187 liters per hectare (L/ha). Spray solutions of the mixtures were prepared by adding the stock solutions to the appropriate amount of dilution solution to form 12 mL spray solution with active ingredients in single and two way combinations. Formulated compounds were applied to the plant material with an overhead Mandel track sprayer equipped with 8002E nozzles calibrated to deliver 187 L/ha at a spray height of 18 inches (43 centimeters (cm)) above average plant canopy.
(§3) The treated plants and control plants were placed in a greenhouse as described above and watered by sub-irrigation to prevent wash-off of the test compounds. Treatments were rated at 21 days after application (DAA) as compared to the untreated control plants. Visual weed control was scored on a scale of 0 to 100 percent where 0 corresponds to no injury and 100 corresponds to complete kill.
(§4) All treatment results, both for the single product and mixtures, are an average of 4 replicates evaluated at 21 days after application, and the tank mix interactions are significant at the […] level.
(§5) Colby's equation was used to determine the herbicidal effects expected from the mixtures (Colby, S. R. Calculation of the synergistic and antagonistic response of herbicide combinations. Weeds 1967, 15, 20-22.).
(§6) The following equation was used to calculate the expected activity of mixtures containing two active ingredients, A and B: Expected=A+B−(A×B/100)

[2] = test system: Chinese sprangletop (Leptochloa chinensis; LEFCH)
Protocol: as §1, §2, §3, §4, §5, §6

[3] = test system: broadleaf signalgrass (Brachiaria platyphylla; BRAPP)
Protocol: as §1, §2, §3, §4, §5, §6

[4] = fluroxypyr-meptyl 50 g ae/ha alone
[5] = fluroxypyr-meptyl 100 g ae/ha alone
[6] = fluroxypyr-meptyl 200 g ae/ha alone

Row | SMILES | % Control ECHCG Ob (observed value) ([1]; quinclorac 26 g ai/ha alone) | % Control ECHCG Ob (observed value) ([1]; quinclorac 53 g ai/ha alone) | % Control ECHCG Ob (observed value) ([1]; quinclorac 110 g ai/ha alone) | % Control ECHCG Ob (observed value) ([1]; quinclorac 220 g ai/ha alone) | % Control LEFCH Ob (observed value) ([2]; quinclorac 26 g ai/ha alone) | % Control LEFCH Ob (observed value) ([2]; quinclorac 53 g ai/ha alone) | % Control LEFCH Ob (observed value) ([2]; quinclorac 110 g ai/ha alone) | % Control LEFCH Ob (observed value) ([2]; quinclorac 220 g ai/ha alone) | % Control BRAPP Ob (observed value) ([3]; quinclorac 26 g ai/ha alone) | % Control BRAPP Ob (observed value) ([3]; quinclorac 53 g ai/ha alone) | % Control BRAPP Ob (observed value) ([3]; quinclorac 110 g ai/ha alone) | % Control BRAPP Ob (observed value) ([3]; quinclorac 220 g ai/ha alone) | % Control ECHCG Ob (observed value) [1, 4] | % Control ECHCG Ob (observed value) [1, 5] | % Control ECHCG Ob (observed value) [1, 6] | % Control LEFCH Ob (observed value) [2, 5] | % Control LEFCH Ob (observed value) [2, 6] | % Control BRAPP Ob (observed value) [3, 4] | % Control BRAPP Ob (observed value) [3, 5] | % Control BRAPP Ob (observed value) [3, 6]
1 | O=C(O)c1c(Cl)ccc2cc(Cl)cnc12 [Quinclorac, 3,7-dichloro-8-quinolinecarboxylic acid] | 5% | 6% | 31% | 65% | 5% | 10% | 15% | 11% | 5% | 6% | 5% | 26% | – | – | – | – | – | – | – | –
2 | CCCCCCC(C)OC(=O)COc1nc(F)c(Cl)c(N)c1Cl (centres unmarked) [Fluroxypyr-meptyl] | – | – | – | – | – | – | – | – | – | – | – | – | 0% | 11% | 6% | 50% | 41% and 42% | 5% | 1% | 5%
